In patent publication US20210128609A1, “ONCOLOGY TREATMENTS USING ZINC AGENTS” (XYLONIX IP HOLDINGS PTE. LTD., priority 2018, published 2021):

Tests used:
Format in all cases: cell-based
Pfeiffer = test: CellTiter-Glo cell viability, Pfeiffer
Experimental: (§1) The 50% inhibitory concentration (IC50) was determined in the cancer cell lines using CellTiter-Glo luminescent cell viability assay after incubation with different concentrations of active agents. Each cell line was treated with active Zn(II) agent, a standard chemotherapy drug as reference control, and culture medium as vehicle control. Cell Lines. All cell lines were cultured in media supplemented with 10-15% FBS, at a temperature of 37° C., 5% CO2, and 95% humidity. The reference control drug for all cell lines was cisplatin, to be used for genomic analysis. The cell lines tested, the tissue of origin are shown below in Table 1: Procedure for Determining Half Maximal Inhibition Concentration IC50 • 1. Harvested cells during the logarithmic growth period and count cell number using Count-star. • 2. Adjusted cell concentrations to 4.44×10^4 cells/mL with respective culture medium. • 3. Added 90 μL cell suspensions to two 96-well plates (plates A and B) with the final cell density of 4×10^3 cells/well. (cell concentration was adjusted according to the data base or density optimization assay.) • 4a. Next day: For the plates of TO reading: • 1) Added 10 μL culture medium to each well of plate A for TO reading. • 2) Equilibrated the plate and its content at RT for approximately 30 min. • 3) Added 50 μL CellTiter-Glo reagent to each well. • 4) Mixed content for 5 min on an orbital shaker to induce cell lysis. • 5) Allowed the plate to incubate at RT for 20 min to stabilize luminescent signal. • 6) Recorded luminescence (TO) using EnVision Multi Label Reader. • 4b. For the plates of test reading: • 1) Prepared 10× solution of Zn(II) agent test article. […] The formula for calculating surviving rate is shown below and the absolute IC50 (EC50) was calculated according to the dose-response curve generated by GraphPad Prism 5.0. • 12) The surviving rate (%)=(LumTest article−LumMedium control)/(LumNon-treated−LumMedium control)×100%.

MES-SA/DX5 = test: CellTiter-Glo cell viability, MES-SA/DX5
Experimental: as §1

PANC-1 = test: CellTiter-Glo cell viability, PANC-1
Experimental: as §1

SK-HEP-1 = test: CellTiter-Glo cell viability, SK-HEP-1
Experimental: as §1

Daudi = test: CellTiter-Glo cell viability, Daudi
Experimental: as §1

L-363 = test: CellTiter-Glo cell viability, L-363
Experimental: as §1

Calu-3 = test: CellTiter-Glo cell viability, Calu-3
Experimental: as §1

AMO-1 = test: CellTiter-Glo cell viability, AMO-1
Experimental: as §1

Molt-4 = test: CellTiter-Glo cell viability, Molt-4
Experimental: as §1

OVCAR-3 = test: CellTiter-Glo cell viability, OVCAR-3
Experimental: as §1

50 cancer cell lines = test: 50 cell line screen, summary of eradication; conditions: out of 50 cell lines
Experimental: as §1, with “control.” for “control. Cell Lines. All cell lines were cultured in media supplemented with 10-15% FBS, at a temperature of 37° C., 5% CO2, and 95% humidity. The reference control drug for all cell lines was cisplatin, to be used for genomic analysis. The cell lines tested, the tissue of origin are shown below in Table 1:”, “control)×100%. Stratifying the cell line panel makeup, the 50 cell lines included 30 blood cancers (17 leukemia and 13 lymphoma cell lines) and 20 solid tumor cancers, including breast (3), cervical (1), colorectum (1), liver (4), lung (4), ovarian (2), pancreas (2), prostate (2), and uterine (1) cancer cell lines.” for “control)×100%.”

Ramos = test: CellTiter-Glo cell viability, Ramos
Experimental: as §1

NCI-H446 = test: CellTiter-Glo cell viability, NCI-H446
Experimental: as §1

MOLM-16 = test: CellTiter-Glo cell viability, MOLM-16
Experimental: as §1

Jurkat clone E6-1 = test: CellTiter-Glo cell viability, Jurkat clone E6-1
Experimental: as §1

HeLa = test: CellTiter-Glo cell viability, HeLa
Experimental: The 50% inhibitory concentration (IC50) was determined in the cancer cell lines using CellTiter-Glo luminescent cell viability assay after incubation with different concentrations of active agents. Each cell line was treated with active Zn(II) agent, a standard chemotherapy drug as reference control, and culture medium as vehicle control. Cell Lines. All cell lines were cultured in media supplemented with 10-15% FBS, at a temperature of 37° C., 5% CO2, and 95% humidity. The reference control drug for all cell lines was cisplatin, to be used for genomic analysis. The cell lines tested, the tissue of origin are shown below in Table 1: Procedure for Determining Half Maximal Inhibition Concentration IC50 • 1. Harvested cells during the logarithmic growth period and count cell number using Count-star. • 2. Adjusted cell concentrations to 4.44×10^4 cells/mL with respective culture medium. • 3. Added 90 μL cell suspensions to two 96-well plates (plates A and B) with the final cell density of 4×10^3 cells/well. (cell concentration was adjusted according to the data base or density optimization assay.) • 4a. […]

KARPAS-422 = test: CellTiter-Glo cell viability, KARPAS-422
Experimental: as §1

[1] = 96 h, top conc. 50 μg/mL Zn(II) agent, 100 μM cisplatin

In the case of `N.N.[Cl][Pt][Cl]` [Cisplatin], the “Absolute IC50” value (Pfeiffer; 96 h, CellTiter-Glo) is reported as 0.83 µg/mL, the “% inhibition at top conc.” value (Pfeiffer; [1]) is reported as 99.98% and the HillSlope (Pfeiffer; 96 h dose-response fit) is reported as −1.79. The “Absolute IC50” value (MES-SA/DX5; 96 h, CellTiter-Glo) was 0.56 µg/mL, the “% inhibition at top conc.” value (MES-SA/DX5; [1]) was 99.97% and the HillSlope (MES-SA/DX5; 96 h dose-response fit) was −1.75. For the same molecule, the “Absolute IC50” value (PANC-1; 96 h, CellTiter-Glo) was 1.08 µg/mL, the “% inhibition at top conc.” value (PANC-1; [1]) was 96.35% and the HillSlope (PANC-1; 96 h dose-response fit) was −0.62. For the same molecule, the “Absolute IC50” value (SK-HEP-1; 96 h, CellTiter-Glo) was 2.13 µg/mL, the “% inhibition at top conc.” value (SK-HEP-1; [1]) was 99.93% and the HillSlope (SK-HEP-1; 96 h dose-response fit) was −1.28. For the same molecule, the “Absolute IC50” value (Daudi; 96 h, CellTiter-Glo) was 0.11 µg/mL, the “% inhibition at top conc.” value (Daudi; [1]) was 99.86% and the HillSlope (Daudi; 96 h dose-response fit) was −1.59. For the same molecule, the “Absolute IC50” value (L-363; 96 h, CellTiter-Glo) was 0.83 µg/mL, the “% inhibition at top conc.” value (L-363; [1]) was 99.98% and the HillSlope (L-363; 96 h dose-response fit) was −2.08. The “Absolute IC50” value (Calu-3; 96 h, CellTiter-Glo) was 0.30 µg/mL, the “% inhibition at top conc.” value (Calu-3; [1]) was 82.29% and the HillSlope (Calu-3; 96 h dose-response fit) was −1.15. For the same molecule, the “Absolute IC50” value (AMO-1; 96 h, CellTiter-Glo) was 0.27 µg/mL, the “% inhibition at top conc.” value (AMO-1; [1]) was 99.99% and the HillSlope (AMO-1; 96 h dose-response fit) was −3.34. For the same molecule, the “Absolute IC50” value (Molt-4; 96 h, CellTiter-Glo) was 0.10 µg/mL, the “% inhibition at top conc.” value (Molt-4; [1]) was 99.99% and the HillSlope (Molt-4; 96 h dose-response fit) was −2.01. The “Absolute IC50” value (OVCAR-3; 96 h, CellTiter-Glo) was 1.08 µg/mL, the “% inhibition at top conc.” value (OVCAR-3; [1]) was 97.70% and the HillSlope (OVCAR-3; 96 h dose-response fit) was −2.96. For the same molecule, the “number of cell lines with more than 97% eradication” value (50 cancer cell lines) was 45, the “number of cell lines with more than 99% eradication” value (50 cancer cell lines) was 39 and the “number of cell lines with poor response of less than 90% eradication” value (50 cancer cell lines) was 2. The “Absolute IC50” value (Ramos; 96 h, CellTiter-Glo) was 0.17 µg/mL, the “% inhibition at top conc.” value (Ramos; [1]) was 99.99% and the HillSlope (Ramos; 96 h dose-response fit) was −2.13. For the same molecule, the “Absolute IC50” value (NCI-H446; 96 h, CellTiter-Glo) was 0.35 µg/mL, the “% inhibition at top conc.” value (NCI-H446; [1]) was 99.99% and the HillSlope (NCI-H446; 96 h dose-response fit) was −0.65. For the same molecule, the “Absolute IC50” value (MOLM-16; 96 h, CellTiter-Glo) was 0.15 µg/mL, the “% inhibition at top conc.” value (MOLM-16; [1]) was 99.96% and the HillSlope (MOLM-16; 96 h dose-response fit) was −1.65. For the same molecule, the “Absolute IC50” value (Jurkat clone E6-1; 96 h, CellTiter-Glo) was 0.17 µg/mL, the “% inhibition at top conc.” value (Jurkat clone E6-1; [1]) was 99.99% and the HillSlope (Jurkat clone E6-1; 96 h dose-response fit) was −2.37. The “% inhibition at top conc.” value (HeLa; [1]) was 99.91%, the HillSlope (HeLa; 96 h dose-response fit) was −1.70 and the “Absolute IC50” value (KARPAS-422; 96 h, CellTiter-Glo) was 0.37 µg/mL. The “% inhibition at top conc.” value (KARPAS-422; [1]) was 99.99% and the HillSlope (KARPAS-422; 96 h dose-response fit) was −1.04.
